Source: paper PMC11372264, “^61Cu-PSMA–Targeted PET for Prostate Cancer: From Radiotracer Development to First-in-Human Imaging” (Journal of Nuclear Medicine, 2024)

Tests used:
[1] = Stability of radiotracer at room temperature (radiochemical purity over time); assay type: physicochemical; conditions: 24 MBq/nmol, 4 h
Description: [^61Cu]Cu-DOTAGA-PSMA-I&T and [^61Cu]Cu-NODAGA-PSMA-I&T were synthesized with radiolabeling yield of more than 98% and radiochemical purity of more than 97% (radio–high-performance liquid chromatography analysis) at an apparent molar activity of 24 MBq/nmol. Thus, no purification was required after labeling. Although [^61Cu]Cu-DOTAGA-PSMA-I&T needed elevated temperature (95°C) and 15 min of reaction time, [^61Cu]Cu-NODAGA-PSMA-I&T was synthesized at room temperature within 5 min. After 4 h at room temperature, the radiochemical purity of [^61Cu]Cu-DOTAGA-PSMA-I&T dropped to approximately 90%, whereas it remained stable (∼97%) for [^61Cu]Cu-NODAGA-PSMA-I&T. All analytic data and quality control results are provided in Supplemental Figures 1 and 2 and in Supplemental Tables 1 and 2.
With inexpensive ^natNi as the starting material, highly pure ^61Cu could be produced with radionuclidic purity exceeding 99.99% at 12 h after synthesis (details on the production will be published elsewhere). The preparation of [^61Cu]Cu-NODAGA-PSMA-I&T was performed in widely used buffers at room temperature within 5 min. […] High labeling yields and suitable molar activities for clinical use eliminate the need for any purification step after labeling. […]

[2] = Lipophilicity: distribution coefficient in 1:1 1-octanol/phosphate-buffered saline at pH 7.4; assay type: physicochemical
Description: (§1) The lipophilicity of [^61Cu]Cu-DOTAGA-PSMA-I&T and [^61Cu]Cu-NODAGA-PSMA-I&T was assessed by determining the distribution coefficient in a 1:1 mixture of 1-octanol–to–phosphate-buffered saline at pH 7.4, in comparison with all reference radiotracers. Inhibitory concentration of 50% (IC50) was assessed by competition binding on lymph node carcinoma of the prostate (LNCaP) using ((S)-1-carboxy-5-(4-(-^125I-iodo-benzamido)pentyl)carbamoyl)-L-glutamic acid as the reference radioligand. Cellular uptake and distribution were assessed in LNCaP cells at 5, 15, 30, 60, and 120 min after exposure to the radioligand at 37°C, either alone or in the presence of 10 µM 2-(phosphonomethyl)pentanedioic acid to distinguish between specific and nonspecific uptake.

LNCaP cells = assay: Cellular uptake and distribution (surface-bound, internalized) in LNCaP cells; assay type: cell-based; conditions: 1 h, 37°C
Description: as §1
FIGURE 1. In vitro assessment in LNCaP cells after 1 h at 37°C. (A) Competition binding activity curves of ^natCu-DOTAGA-PSMA-I&T, ^natCu-NODAGA-PSMA-I&T, and ^natGa-PSMA-11 on LNCaP cells after 1 h of incubation on ice, using ((S)-1-carboxy-5-(4-(-^125I-iodo-benzamido)pentyl)carbamoyl)-L-glutamic acid ([^125I-BA]KuE) at concentration of 0.2 nM as reference radioligand. (B) Cellular uptake (surface-bound + internalized). Cell surface–bound and internalized fractions are indicated. Results represent mean ± SD of specific (total − nonspecific) uptake from minimum of 2 separate experiments, each in triplicate.

[3] = In vivo metabolic stability (radio-HPLC of urine, liver and kidney homogenates); set-up: species or system BALB/c mice; conditions: 1 h after injection
Description: The stability of [^61Cu]Cu-DOTAGA-PSMA-I&T and [^61Cu]Cu-NODAGA-PSMA-I&T was assessed by radio–reversed-phase high-performance liquid chromatography in urine and in liver and kidney homogenates from healthy BALB/c mice after injection of 100 µL/400 pmol/8–9 MBq of each radiotracer. Details are provided in the supplemental materials.

LNCaP xenografts = assay: Biodistribution in LNCaP xenografts; assay type: in vivo, mice
Description: All animal experiments were conducted in accordance with Swiss animal welfare laws and regulations under license number 30515 granted by the Veterinary Office, Department of Health, Canton Basel-Stadt, Switzerland. Male athymic nude-Foxn1^nu/Foxn1^+ mice (Envigo), 4–6 wk old, were inoculated subcutaneously on the shoulder with 10^7 LNCaP cells, freshly suspended in a 1:1 ratio of sterile minimum essential medium with basal medium Eagle and Matrigel. The tumors were allowed to grow to a volume of approximately 200 mm^3.
The biodistribution of [^61Cu]Cu-DOTAGA-PSMA-I&T and [^61Cu]Cu-NODAGA-PSMA-I&T (100 µL/200 pmol/2–3 MBq) was compared with that of [^68Ga]Ga-DOTAGA-PSMA-I&T, [^68Ga]Ga-NODAGA-PSMA-I&T, and [^68Ga]Ga-PSMA-11 (100 µL/200 pmol/3–5 MBq), as well as [^18F]PSMA-1007 (100 µL/70 pmol/15 MBq). This comparison was conducted at 1 h after injection for all radiotracers and at 4 h after injection for the ^61Cu-labeled tracers and [^18F]PSMA-1007. The specificity of the ^61Cu-labeled tracers was assessed at 1 h after injection by blocking studies with 2-(phosphonomethyl)pentanedioic acid (100 µL/1.3 µmol) being injected 3–5 min before the injection of the radiotracer.

[4] = 1 h after injection, blocking with 2-(phosphonomethyl)pentanedioic acid 1.3 µmol

## O=C([O-])CN1CCN(CC(=O)O)CCN(CC(=O)[O-])CCN(C(CCC(=O)N[C@H](Cc2ccc(O)c(I)c2)C(=O)N[C@H](Cc2ccccc2)C(=O)N[C@H](CCCCNC(=O)CCCCCCC(=O)NCCCC[C@H](NC(=O)N[C@@H](CCC(=O)O)C(=O)O)C(=O)O)C(=O)O)C(=O)O)CC1.[61Cu+2] (stereo partly drawn) [[^61Cu]Cu-DOTAGA-PSMA-I&T, DOTAGA-(l-y)fk(sub-KuE)]
[1]
  Radiochemical purity after 4 h at room temperature: approximately 90%
[2]
  logDpH7.4: −2.69 ± 0.44
LNCaP cells; specific uptake
  Cellular uptake (surface-bound + internalized): 26.6% ± 1.3%
LNCaP cells; % of applied activity
  Internalized fraction: 13.3 ± 0.5%
  Surface-bound fraction: 13.4 ± 0.8%
[3]
  Release of ^61Cu in the liver: approximately 70%
LNCaP xenografts; 1 h after injection
  Biodistribution, Adrenals: 9.35 ± 1.50 %IA/g
  Biodistribution, Blood: 2.06 ± 0.24 %IA/g
  Biodistribution, Femur: 2.31 ± 0.36 %IA/g
  Biodistribution, Heart: 3.73 ± 0.32 %IA/g
  Biodistribution, Intestine: 8.95 ± 0.62 %IA/g
  Biodistribution, Kidneys: 57.1 ± 6.3 %IA/g
  Biodistribution, Liver: 19.3 ± 3.3 %IA/g
  Biodistribution, Lung: 6.35 ± 0.35 %IA/g
  Biodistribution, Muscles: 1.00 ± 0.05 %IA/g
  Biodistribution, Pancreas: 2.82 ± 0.67 %IA/g
  Biodistribution, Salivary glands: 5.60 ± 1.39 %IA/g
  Biodistribution, Spleen: 4.64 ± 1.35 %IA/g
  Biodistribution, Stomach: 7.77 ± 0.62 %IA/g
  Biodistribution, Tumor (tumor uptake): 6.06 ± 0.25 %IA/g
  Tumor-to-Adrenals ratio: 0.66 ± 0.13
  Tumor-to-Blood ratio: 2.97 ± 0.23
  Tumor-to-Intestine ratio: 0.68 ± 0.07
  Tumor-to-Kidneys ratio: 0.11 ± 0.01
  Tumor-to-Liver ratio: 0.32 ± 0.05
  Tumor-to-Muscles ratio: 6.08 ± 0.22
  Tumor-to-Salivary glands ratio: 1.14 ± 0.34
  Tumor-to-Spleen ratio: 1.37 ± 0.29
LNCaP xenografts; [4]
  Biodistribution, Adrenals: 3.25 ± 0.92 %IA/g
  Biodistribution, Blood: 1.36 ± 0.15 %IA/g
  Biodistribution, Femur: 1.50 ± 0.21 %IA/g
  Biodistribution, Heart: 2.34 ± 0.11 %IA/g
  Biodistribution, Intestine: 8.78 ± 2.18 %IA/g
  Biodistribution, Kidneys: 8.76 ± 1.57 %IA/g
  Biodistribution, Liver: 14.3 ± 1.7 %IA/g
  Biodistribution, Lung: 5.62 ± 1.61 %IA/g
  Biodistribution, Muscles: 0.63 ± 0.10 %IA/g
  Biodistribution, Pancreas: 1.89 ± 0.34 %IA/g
  Biodistribution, Salivary glands: 3.25 ± 0.94 %IA/g
  Biodistribution, Spleen: 2.46 ± 0.47 %IA/g
  Biodistribution, Stomach: 7.52 ± 1.58 %IA/g
  Biodistribution, Tumor: 3.31 ± 0.26 %IA/g
LNCaP xenografts; 4 h after injection
  Biodistribution, Adrenals: 6.46 ± 2.38 %IA/g
  Biodistribution, Blood: 1.12 ± 0.24 %IA/g
  Biodistribution, Femur: 1.69 ± 0.25 %IA/g
  Biodistribution, Heart: 2.08 ± 0.33 %IA/g
  Biodistribution, Intestine: 7.74 ± 1.76 %IA/g
  Biodistribution, Kidneys: 22.1 ± 2.2 %IA/g
  Biodistribution, Liver: 13.9 ± 2.2 %IA/g
  Biodistribution, Lung: 4.67 ± 0.76 %IA/g
  Biodistribution, Muscles: 0.48 ± 0.08 %IA/g
  Biodistribution, Pancreas: 1.71 ± 0.23 %IA/g
  Biodistribution, Salivary glands: 2.31 ± 0.19 %IA/g
  Biodistribution, Spleen: 2.95 ± 0.73 %IA/g
  Biodistribution, Stomach: 7.10 ± 0.97 %IA/g
  Biodistribution, Tumor (tumor uptake): 4.88 ± 0.63 %IA/g
  Tumor-to-Adrenals ratio: 0.81 ± 0.22
  Tumor-to-Blood ratio: 4.56 ± 1.49
  Tumor-to-Intestine ratio: 0.66 ± 0.23
  Tumor-to-Kidneys ratio: 0.22 ± 0.04
  Tumor-to-Liver ratio: 0.35 ± 0.05
  Tumor-to-Muscles ratio: 10.5 ± 2.8
  Tumor-to-Salivary glands ratio: 2.13 ± 0.43
  Tumor-to-Spleen ratio: 1.73 ± 0.46
LNCaP xenografts; LNCaP xenografts
  Blood values and background activity, fold higher than [^61Cu]Cu-NODAGA-PSMA-I&T: approximately 10 fold
